Here are results for 29 molecules from US10106515B2, “1-(cyclopent-2-en-1-yl)-3-(2-hydroxy-3-(arylsulfonyl)phenyl)urea derivatives as CXCR2 inhibitors” (GLAXOSMITHKLINE INTELLECTUAL PROPERTY DEVELOPMENT LIMITED, priority 2014, dated 2018).

Structures can show the parent of a compound that is named as a salt.

The target of this assay is T1, recombinant human CXCR2 (Homo sapiens, UniProt P25025).
T1 construct: TEV protease site; Gal4-VP16 transcription factor
T1 sequence (P25025 1-360): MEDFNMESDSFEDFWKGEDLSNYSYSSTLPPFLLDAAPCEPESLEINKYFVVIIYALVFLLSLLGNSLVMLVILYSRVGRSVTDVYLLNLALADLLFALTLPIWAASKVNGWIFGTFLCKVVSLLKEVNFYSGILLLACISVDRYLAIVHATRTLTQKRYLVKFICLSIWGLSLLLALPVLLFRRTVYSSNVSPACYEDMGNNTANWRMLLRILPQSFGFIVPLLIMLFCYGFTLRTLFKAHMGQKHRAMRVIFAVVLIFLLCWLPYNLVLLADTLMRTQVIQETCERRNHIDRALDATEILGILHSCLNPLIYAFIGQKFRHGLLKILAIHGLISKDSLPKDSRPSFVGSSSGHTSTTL
Nature of the assay: CXCR2 Tango assay. It is filed as cell-based. The conditions noted are these: mean pIC50 of multiple test results; stimulated with 80 nM hCXCL1; reporter gene blue/green emission ratio; read-out: pIC50 (CXCR2 Tango assay) (converted). Put shortly: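 Mean pIC50 comes from sigmoidal fits of the blue/green (460/530 nm) CCF4-AM ratio, normalized between hCXCL1-stimulated and DMSO controls. Compounds in 10-point dose response were incubated overnight at 37 °C with recombinant human CXCR2 Tango cells (~10,000/well) and 80 nM hCXCL1, with reporter read-out via arrestin-TEV release of Gal4-VP16.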
As to `CC1=CCC[C@H]1NC(=O)Nc1ccc(Cl)c(S(=O)(=O)[C@H]2CC[C@H](O)C2)c1O` (racemic) [Compound 45, (±)-trans-1-(4-chloro-2-hydroxy-3-((3-hydroxycyclopentyl)sulfonyl)phenyl)-3-((R)-2-methylcyclopent-2-en-1-yl)urea], the IC50 is ≤ 0.001 µM.

Take `CC1=CCCC1NC(=O)Nc1ccc(Cl)c(S(=O)(=O)[C@H]2CCOC2)c1O` (stereo partly drawn) [Compound 99, 1-(4-chloro-2-hydroxy-3-(((S)-tetrahydrofuran-3-yl)sulfonyl)phenyl)-3-(2-methylcyclopent-2-en-1-yl)urea]: the IC50 was ≤ 0.01 µM.

`CC(C)(C(F)(F)F)S(=O)(=O)c1c(Cl)ccc(NC(=O)NC2C=CCC2)c1O` (centres unmarked) [Compound 1, 1-(4-chloro-2-hydroxy-3-((1,1,1-trifluoro-2-methylpropan-2-yl)sulfonyl)phenyl)-3-(cyclopent-2-en-1-yl)urea]: the IC50 is ≤ 0.01 µM.

In the case of `CCO[C@H]1C[C@@H](S(=O)(=O)c2c(Cl)ccc(NC(=O)N[C@@H]3CCC=C3Cl)c2O)C1` [Compound 125, 1-(4-chloro-3-(((1s,3s)-3-ethoxycyclobutyl)sulfonyl)-2-hydroxyphenyl)-3-(2-chlorocyclopent-2-en-1-yl)urea], the IC50 is ≤ 0.01 µM.

As to `CC(c1ccccn1)S(=O)(=O)c1c(Cl)ccc(NC(=O)NC2CCC=C2Cl)c1O` (centres unmarked) [Compound 26, 1-(4-chloro-2-hydroxy-3-((1-(pyridin-2-yl)ethyl)sulfonyl)phenyl)-3-(2-chlorocyclopent-2-en-1-yl)urea], the IC50 was ≤ 0.01 µM.

For `CC1=C(Cl)CCC1NC(=O)Nc1ccc(Cl)c(S(=O)(=O)C(C)C)c1O` (centres unmarked) [Compound 16, 1-(4-chloro-2-hydroxy-3-(isopropylsulfonyl)phenyl)-3-(3-chloro-2-methylcyclopent-2-en-1-yl)urea], the IC50 is ≤ 0.01 µM.

With `CC(C)S(=O)(=O)c1c(Cl)ccc(NC(=O)NC2CCC=C2F)c1O` (centres unmarked) [Compound 22, 1-(4-chloro-2-hydroxy-3-(isopropylsulfonyl)phenyl)-3-(2-fluorocyclopent-2-en-1-yl)urea], the IC50 is ≤ 0.01 µM.

As for `CC(C)(CF)S(=O)(=O)c1c(Cl)ccc(NC(=O)NC2CCC=C2Cl)c1O` (centres unmarked) [Compound 10, 1-(4-chloro-3-((1-fluoro-2-methylpropan-2-yl)sulfonyl)-2-hydroxyphenyl)-3-(2-chlorocyclopent-2-en-1-yl)urea], the IC50 was ≤ 0.01 µM.

As for `CC(F)(F)S(=O)(=O)c1c(Cl)ccc(NC(=O)NC2CCC=C2Cl)c1O` (centres unmarked) [Compound 37, 1-(4-chloro-3-((1,1-difluoroethyl)sulfonyl)-2-hydroxyphenyl)-3-(2-chlorocyclopent-2-en-1-yl)urea], the IC50 is ≤ 0.001 µM.

As to `CC1=CCC[C@H]1NC(=O)Nc1ccc(Cl)c(S(=O)(=O)N2CC(F)C2)c1O` [Compound 86, (R)-1-(4-chloro-3-((3-fluoroazetidin-1-yl)sulfonyl)-2-hydroxyphenyl)-3-(2-methylcyclopent-2-en-1-yl)urea trifluoroacetic acid salt], the IC50 was ≤ 0.01 µM.

`CC1=CCC[C@H]1NC(=O)Nc1ccc(Cl)c(S(=O)(=O)N2CC[C@@H](F)C2)c1O` [Compound 87, 1-(4-chloro-3-(((R)-3-fluoropyrrolidin-1-yl)sulfonyl)-2-hydroxyphenyl)-3-((R)-2-methylcyclopent-2-en-1-yl)urea, trifluoroacetic acid salt]: the IC50 is ≤ 0.01 µM.

For the molecule `CC1=CCC[C@H]1NC(=O)Nc1ccc(Cl)c(S(=O)(=O)C2(F)CCOC2)c1O` (stereo partly drawn) [Compound 74, 1-(4-chloro-3-((3-fluorotetrahydro-furan-3-yl)sulfonyl)-2-hydroxyphenyl)-3-((R)-2-methylcyclopent-2-en-1-yl)urea], the IC50 is ≤ 0.001 µM.

As for `CC1=CCCC1NC(=O)Nc1ccc(Cl)c(S(=O)(=O)N(C)C)c1O` (centres unmarked) [Compound 137, 6-chloro-2-hydroxy-N,N-dimethyl-3-(3-(2-methylcyclopent-2-en-1-yl)ureido)benzene-sulfonamide], the IC50 is ≤ 0.01 µM.

As to `CC1=CCC[C@H]1NC(=O)Nc1ccc(Cl)c(S(=O)(=O)C2CCC[C@@H]2O)c1O` (mixture of isomers) [Compound 51, (±)trans-1-(4-chloro-2-hydroxy-3-((2-hydroxycyclopent-yl)sulfonyl)phenyl)-3-((R)-2-methylcyclopent-2-en-1-yl)urea, trifluoroacetic acid salt], the IC50 was ≤ 0.001 µM.

On to `CC(c1ncccn1)S(=O)(=O)c1c(Cl)ccc(NC(=O)NC2CCC=C2Cl)c1O` (centres unmarked) [Compound 30, 1-(4-chloro-2-hydroxy-3-((1-(pyrimidin-2-yl)ethyl)sulfonyl)phenyl)-3-(2-chlorocyclopent-2-en-1-yl)urea], for which the IC50 was ≤ 0.01 µM.

As to `CC(C)(F)S(=O)(=O)c1c(Cl)ccc(NC(=O)NC2C=CCC2)c1O` (centres unmarked) [Compound 14, 1-(4-chloro-3-((2-fluoropropan-2-yl)sulfonyl)-2-hydroxyphenyl)-3-(cyclopent-2-en-1-yl)urea], the IC50 is ≤ 0.01 µM.

For the molecule `CC1=CCC[C@H]1NC(=O)Nc1ccc(Cl)c(S(=O)(=O)[C@@H]2CCCC[C@H]2O)c1O` [Compound 46, 1-(4-chloro-2-hydroxy-3-((trans-2-hydroxycyclohexyl)sulfonyl)phenyl)-3-((R)-2-methylcyclopent-2-en-1-yl)urea], the IC50 is ≤ 0.001 µM.

`CO[C@@H]1COCC[C@@H]1S(=O)(=O)c1c(Cl)ccc(NC(=O)N[C@@H]2CCC=C2C)c1O` [Compound 145, 1-(4-chloro-2-hydroxy-3-(((3R,4S)-3-methoxytetrahydro-2H-pyran-4-yl)sulfonyl)phenyl)-3-((R)-2-methylcyclopent-2-en-1-yl)urea]: the IC50 is ≤ 0.01 µM.

For the molecule `O=C(Nc1ccc(Cl)c(S(=O)(=O)[C@H]2CCOC2)c1O)NC1CCC=C1Cl` (stereo partly drawn) [Compound 179, 1-(4-chloro-2-hydroxy-3-(((S)-tetrahydrofuran-3-yl)sulfonyl)phenyl)-3-(2-chlorocyclopent-2-en-1-yl)urea], the IC50 is ≤ 0.01 µM.

For the molecule `CC1=CCC[C@H]1NC(=O)Nc1ccc(Cl)c(S(=O)(=O)C2(F)CCN(C3CCC3)CC2)c1O` [Compound 73, (R)-1-(4-chloro-3-((1-cyclobutyl-4-fluoropiperidin-4-yl)sulfonyl)-2-hydroxyphenyl)-3-(2-methylcyclopent-2-en-1-yl)urea, trifluoroacetic acid salt], the IC50 was ≤ 0.001 µM.

Consider `CC1=CCCC1NC(=O)Nc1ccc(Cl)c(S(=O)(=O)[C@H]2CC[C@H](N3CCC3)CC2)c1O` (some centres unmarked) [Compound 97, 1-(3-(((1r,4r)-4-(azetidin-1-yl)cyclohexyl)sulfonyl)-4-chloro-2-hydroxyphenyl)-3-(2-methylcyclopent-2-en-1-yl)urea trifluoroacetic acid salt], for which the IC50 is ≤ 0.01 µM.

For `CC1=CCC[C@H]1NC(=O)Nc1ccc(Cl)c(S(=O)(=O)C2(C)CCN(C3CCC3)CC2)c1O` [Compound 67, (R)-1-(4-chloro-3-((1-cyclobutyl-4-methylpiperidin-4-yl)sulfonyl)-2-hydroxyphenyl)-3-(2-methylcyclopent-2-en-1-yl)urea, trifluoroacetic acid salt], the IC50 is ≤ 0.01 µM.

In the case of `CC1=CCCC1NC(=O)Nc1ccc(Cl)c(S(=O)(=O)C(C)(C)C(F)(F)F)c1O` (centres unmarked) [Compound 101, 1-(4-chloro-2-hydroxy-3-((1,1,1-trifluoro-2-methylpropan-2-yl)sulfonyl)phenyl)-3-(2-methylcyclopent-2-en-1-yl)urea], the IC50 was ≤ 0.001 µM.

Take `COCC(C)(C)S(=O)(=O)c1c(Cl)ccc(NC(=O)NC2CCC=C2C)c1O` (centres unmarked) [Compound 156, 1-(4-chloro-2-hydroxy-3-((1-methoxy-2-methylpropan-2-yl)sulfonyl)phenyl)-3-(2-methylcyclopent-2-en-1-yl)urea]: the IC50 was ≤ 0.01 µM.

`COCC(C)(C)S(=O)(=O)c1c(Cl)ccc(NC(=O)NC2CCC=C2Cl)c1O` (centres unmarked) [Compound 157, 1-(4-chloro-2-hydroxy-3-((1-methoxy-2-methylpropan-2-yl)sulfonyl)phenyl)-3-(2-chlorocyclopent-2-en-1-yl)urea]: the IC50 was ≤ 0.01 µM.

For `CC1=CCCC1NC(=O)Nc1ccc(Cl)c(S(=O)(=O)C2CCN3CCCC3C2)c1O` (centres unmarked) [Compound 109, 1-(4-chloro-2-hydroxy-3-((octahydroindolizin-7-yl)sulfonyl)phenyl)-3-(2-methylcyclopent-2-en-1-yl)urea, trifluoroacetic acid salt], the IC50 is ≤ 0.01 µM.

Consider `CC1=CCCC1NC(=O)Nc1ccc(Cl)c(S(=O)(=O)[C@H]2C[C@H](N(C)C)C2)c1O` (stereo partly drawn) [Compound 133, 1-(4-chloro-3-((trans-3-(dimethylamino)cyclobutyl)sulfonyl)-2-hydroxyphenyl)-3-(2-methylcyclopent-2-en-1-yl)urea], for which the IC50 was ≤ 0.01 µM.

Turning to `CC1=CCCC1NC(=O)Nc1ccc(Cl)c(S(=O)(=O)C(C)(C)F)c1O` (centres unmarked) [Compound 105, 1-(4-chloro-3-((2-fluoropropan-2-yl)sulfonyl)-2-hydroxyphenyl)-3-(2-methylcyclopent-2-en-1-yl)urea], the IC50 was ≤ 0.01 µM.

For the molecule `CC(C)(CF)S(=O)(=O)c1c(Cl)ccc(NC(=O)NC2C=CCC2)c1O` (centres unmarked) [Compound 9, 1-(4-chloro-3-((1-fluoro-2-methylpropan-2-yl)sulfonyl)-2-hydroxyphenyl)-3-(cyclopent-2-en-1-yl)urea], the IC50 is ≤ 0.01 µM.
